The text below walks through data of the OligoGym collection.

The target of this data set is APOL1. To be noted: ASO.

Where “and” joins values, the source holds several entries; their conditions need not be identical. Equal values may be shown once. After the bases stand the sugars from the 5' end (letter, count) and the backbone: PS all phosphorothioate, else s phosphorothioate and o phosphodiester by linkage. Methylation of C is not given here. e = 2'-O-(2-methoxyethyl) (MOE); k = constrained ethyl (cEt); d = 2'-deoxy (DNA)

For AGTTTCATATTCACCC (sugars k4 d9 k3, PS), the target mRNA inhibition came out at 58% (A431, 0.0625 µM); 83% (A431, 0.25 µM); 94% (A431, 1 µM).
For the sequence “ACACATCATTGGGTTA (sugars kkdddddkekeddddd, PS)”, the target mRNA inhibition (A431, 2 µM) was determined as 72%.
Sequence “GCTAATTTTCTGACTG (sugars kddddkekekeddddd, PS)” had a target mRNA inhibition (A431, 2 µM) of 88%.
Take CCACATTTGAGATTAT (sugars k4 d9 k3, PS): the target mRNA inhibition reads like this: (A431, 0.0625 µM) 37%; (A431, 0.25 µM) 72%; (A431, 1 µM) 90%.
Turning to GCGATTGTCTTGTTTT (sugars k4 d9 k3, PS), the target mRNA inhibition (A431, 0.0625 µM) is 64% and 78%; the target mRNA inhibition (A431, 0.25 µM) was 87% and 89%; the target mRNA inhibition (A431, 1 µM) was determined as 93%.
“CTGTTCTAACTCTTGG (sugars kkkddddkekekdddd, PS)”: the target mRNA inhibition (A431, 2 µM) turned out to be 88%.
For GTTTTGTTGCACCCTC (sugars k4 d9 k3, PS), the target mRNA inhibition stood at 65% (A431, 0.0625 µM); 82% (A431, 0.25 µM); 95% (A431, 1 µM).
Consider “CGTCAATATATTCTTT (sugars kddddkekekeddddd, PS)”, for which the target mRNA inhibition reads like this: (A431, 0.0156 µM) 0%; (A431, 0.0625 µM) 46%; (A431, 0.25 µM) 78%; (A431, 1 µM) 90%; (A431, 2 µM) 96%.
With TTTGGGTCAAAAGCGA (sugars k4 d9 k3, PS), the target mRNA inhibition is 66% and 85% (A431, 0.25 µM); 83% and 93% (A431, 1 µM).
As to GATTTTTCTTTGACCG (sugars k4 d9 k3, PS), the target mRNA inhibition is, setting by setting: (A431, 0.0625 µM) 80% and 81%; (A431, 0.25 µM) 95% and 94%; (A431, 1 µM) 99% and 98%.
In the case of “ACATCATTGGGTTATG (sugars kkddddkekekkdddd, PS)”, the target mRNA inhibition (A431, 2 µM) was determined as 70%.
Consider “AAGTATTGCCAGCTAA (sugars kkkddddkekekdddd, PS)”, for which the target mRNA inhibition (A431, 2 µM) came out at 47%.
Turning to ATCAGATGGGTACTTC (sugars k4 d9 k3, PS), the target mRNA inhibition is, setting by setting: (A431, 0.0625 µM) 53%; (A431, 0.25 µM) 78%; (A431, 1 µM) 89%.
“TTTAAACTCAGGTGAC (sugars kdddddkekekddddd, PS)”: the target mRNA inhibition (A431, 2 µM) was found to be 45%.
As to “ATGCTAATTTTCTGAC (sugars k2 d4 e3 k2 d5, PS)”, the target mRNA inhibition (A431, 2 µM) is 88%.
On to TGTTCTAACTCTTGGG (sugars k4 d9 k3, PS), for which the target mRNA inhibition runs as follows: (A431, 0.0625 µM) 75%; (A431, 0.25 µM) 88%; (A431, 1 µM) 94%.
Under “A431, 2 µM”, “GGTTATGAAATTATTG (sugars k3 d4 k3 e1 d5, PS)” registered a target mRNA inhibition of 91%.
The same measure, in the same setting: the value for “GTTCAAAAGCAGCATT (sugars kkddddkekekkdddd, PS)” was 34%; that for “TCAGATGGGTACTTCT (sugars kkddddkekekddddd, PS)” was 82%.
For CACTTGAGTCATTTGC (sugars k4 d9 k3, PS), the target mRNA inhibition was found to be 37% (A431, 0.0625 µM); 73% (A431, 0.25 µM); 86% (A431, 1 µM).
For the sequence “TGTTATATTTGATCCT (sugars kkddddekekeddddd, PS)”, the target mRNA inhibition stood at 17% (A431, 0.0156 µM); 41% (A431, 0.0625 µM); 71% (A431, 0.25 µM); 85% (A431, 1 µM); 94% (A431, 2 µM).
CCTTAATGTAAATTCC (sugars k4 d9 k3, PS) returned a target mRNA inhibition (A431, 0.0625 µM) of 32%; a target mRNA inhibition (A431, 0.25 µM) of 61%; a target mRNA inhibition (A431, 1 µM) of 80%.
GTATTGCCAGCTAAGG (sugars k4 d9 k3, PS): the target mRNA inhibition came out at 56% (A431, 0.0625 µM); 85% (A431, 0.25 µM); 94% (A431, 1 µM).
For GAAAATATCAGAGTGT (sugars k4 d9 k3, PS), in that order: 29%, 68% and 90%.
As to “CAGTTTTGTAAGTGCA (sugars kkddddekekeddddd, PS)”, under “A431, 2 µM”, the target mRNA inhibition came out at 91%.
Same read-out and setting: the value for “CTTTATACCAGTGTCT (sugars kdddddkekekddddd, PS)” was 89%; that for “TCTATTAGAGGGCTAG (sugars k2 d4 e3 k2 d5, PS)” was 67%.
Still for that read-out and setting: the value for “GTTATGAAATTATTGG (sugars k2 d4 e3 k2 d5, PS)” was 54%; that for “ACACATCATTGGGTTA (sugars kkddddkekekddddd, PS)” was 50%.
On the same count and under the same terms, the value for “TTATTCTCATGGTACA (sugars kkddddekekeddddd, PS)” was 51%.
For the sequence “CTTTAAACTCAGGTGA (sugars kkddddkekekddddd, PS)”, the target mRNA inhibition (A431, 2 µM) was found to be 82%.
